Source: patent publication US11654136B2, “Phosphoinositide 3-kinase inhibitor with a zinc binding moiety” (Curis, Inc., priority 2011, dated 2023)
Entries after “also recorded” stand apart in the source; their conditions may differ. Like-named read-outs stand apart in the source and are kept apart here.

Legend:
[1] = test system: SW403; assay: Cell proliferation assay SW403; assay type: cell-based; settings: Homo sapiens, SW-403, Colon, 72 hours, read-out: IC50 antiproliferative activity
Description: (§1) Growth inhibition was accessed by adenosine triphosphate (ATP) content assay using Promega CellTiter-Glo kit. Promega CellTiter-Glo kit is an ATP monitoring system based on firefly luciferase. Briefly, 16 μl of mammalian cell lysis and substrate solution was added to 84 µl of culture medium per well to lyse the cells and stabilize the ATP. The mixture was shaken and incubated for 30 minutes and subsequently the luminescence was measured. IC50 values were calculated using PRISM software (GraphPad Software) with sigmoidal dose-response curve fitting.

[2] = test system: H2122; assay: Cell proliferation assay H2122; assay type: cell-based; settings: Homo sapiens, NCI-H2122, NSCLC, 72 hours, read-out: IC50 antiproliferative activity
Description: as §1

[3] = test system: Calu6; assay: Cell proliferation assay Calu6; assay type: cell-based; settings: Homo sapiens, Calu-6, NSCLC, 72 hours, read-out: IC50 antiproliferative activity
Description: as §1

[4] = test system: CFPAC-1; assay: Cell proliferation assay CFPAC-1; assay type: cell-based; settings: Homo sapiens, Pancreas, 72 hours, read-out: IC50 antiproliferative activity
Description: as §1

[5] = test system: SW1990; assay: Cell proliferation assay SW1990; assay type: cell-based; settings: Homo sapiens, Pancreas, 72 hours, read-out: IC50 antiproliferative activity
Description: as §1

[6] = test system: T47D; assay: Cell proliferation assay T47D; assay type: cell-based; settings: Homo sapiens, Breast, 72 hours, read-out: IC50 antiproliferative activity
Description: as §1

[7] = test system: SUP-B15; assay: Cell proliferation assay SUP-B15; assay type: cell-based; settings: Homo sapiens, ALL, 72 hours, read-out: IC50 antiproliferative activity
Description: as §1

[8] = test system: U937; assay: Cell proliferation assay U937; assay type: cell-based; settings: Homo sapiens, U-937, AML, 72 hours, read-out: IC50 antiproliferative activity
Description: as §1

[9] = test system: THP-1; assay: Cell proliferation assay THP-1; assay type: cell-based; settings: Homo sapiens, AML, 72 hours, read-out: IC50 antiproliferative activity
Description: as §1

[10] = test system: Su-DHL4; assay: Cell proliferation assay Su-DHL4; assay type: cell-based; settings: Homo sapiens, SU-DHL-4, B-Cell Lymphoma, 72 hours, read-out: IC50 antiproliferative activity
Description: as §1

[11] = test system: MJ; assay: Cell proliferation assay MJ; assay type: cell-based; settings: Homo sapiens, T-Cell Lymphoma, 72 hours, read-out: IC50 antiproliferative activity
Description: as §1

[12] = test system: K562; assay: Cell proliferation assay K562; assay type: cell-based; settings: Homo sapiens, CML, 72 hours, read-out: IC50 antiproliferative activity
Description: as §1

[13] = Pharmacokinetics in nude mice bearing H2122 tumors; assay type: in vivo; settings: PO 50 mg/kg; for Cmax / bioavailability: mouse
Description: Nude mice bearing H2122 (human non-small cell lung cancer cell line) xenograft tumors were used for pharmacokinetics studies. […] At various time points following compound administration, three mice per time point were euthanized with CO2, and blood and tumor tissues were collected. Blood was collected into tubes containing sodium heparin. The plasma was separated via centrifugation. Plasma and tissues were stored at −80° C. for later analysis. A PE Sciex API-3000 LC-MS/MS system (Applied Biosystems, Inc., Foster City, Calif.) was used to analyze compound concentrations in plasma and tumor tissues.

[14] = test system: Salmonella typhimurium TA100
Description: The tester strains used in the mutagenicity assay were Salmonella typhimurium tester strains TA98 (for detecting frame-shift reverse mutation) and TA100 (for detecting point reverse mutation). The assay was conducted in both the presence and absence of S9 mixture along with concurrent vehicle (DMSO, 20 μl/well) and positive controls in duplicate using 6-well plates. […] A reproducible two-fold increase (>2× of vehicle control) of revertant colonies over the daily average control value is considered a positive response of gene mutation for each strain.
2-nitrofluorene and sodium azide served as the positive controls in the absence of S9 for TA98 and TA100 respectively. 2-Aminoanthracene served as the positive controls in the presence of S9 for TA98 and TA100.

[15] = test system: p-STAT3 (Y-705) and p-Src; assay: Western blot in RPMI-8226 myeloma cells; assay type: cell-based; settings: 1 μM, 16 h
[16] = test system: EGFR, HER2, HER3, and MET; assay: Western blot of receptor tyrosine kinases in H1975 and BT-474 cells; assay type: cell-based; settings: H1975 NSCLC cells and BT-474 breast cancer cells; 16 h
Description: Cell extracts were prepared in the presence of SDS and 2-mercaptoethanol and resolved in polyacrylamide gels. Proteins were transferred to nitrocellulose filter and blotting was done using standard procedures with blocking solutions (Li-Cor Bioscience) containing the indicated primary antibody. Primary antibodies against p-EGFR, EGFR, p-HER2, HER2, p-HER3, HER3, p-MET, MET, p-bRaf, p-cRaf, pMEK, MEK, p-ERK, ERK and tubulin were purchased from Cell Signaling Technology. Secondary antibody conjugated with IRdye 680, 800CW were used and the signal was detected with Li-Cor Odyssey Imager.

[17] = Plasma, H2122 tumor-bearing nude mice

COc1ccc(-c2nc(N3CCOCC3)c3sc(CN(C)c4ncc(C(=O)NO)cn4)cc3n2)cn1 [Compound 1, N-hydroxy-2-(((2-(6-methoxypyridin-3-yl)-4-morpholinothieno[3,2-d]pyrimidin-6-yl)methyl)(methyl)amino)pyrimidine-5-carboxamide]
IC50 [1]: < 10 nM | IC50 [2]: < 10 nM | IC50 [3]: 10 to 100 nM | IC50 [4]: 10 to 100 nM | IC50 [5]: < 10 nM | IC50 [6]: 10 to 100 nM | IC50 [7]: < 10 nM | IC50 [8]: < 10 nM | IC50 [9]: 10 to 100 nM | IC50 [10]: < 10 nM | IC50 [11]: < 10 nM | IC50 [12]: 10 to 100 nM | Distribution between plasma and tumor tissue [13]: preferentially accumulates in tumor tissue | Area under the Curve [13, 17]: 478 ng/mL * hr | Half-life [13, 17]: 5.9 h | Area under the Curve ([13]; Tumor): 2126 ng/mL * hr | Half-life ([13]; Tumor): 10.1 h | Cmax ([13]; Tumor): 154 ng/mL | bioavailability ([13]; Tumor): 14.8% | Cmax [13, 17]: 186 ng/mL | bioavailability [13, 17]: 7.8% | Background Lawn TA100 ([14]; +S9, 62.5 μg/well): 4/4 | Revertants per well TA100, Mean ([14]; +S9, 62.5 μg/well): 32 | Revertants per well TA100, well 1 ([14]; +S9, 62.5 μg/well): 34 | Revertants per well TA100, well 2 ([14]; +S9, 62.5 μg/well): 30 | Background Lawn TA100 ([14]; +S9, 125 μg/well): 4/4 | Revertants per well TA100, Mean ([14]; +S9, 125 μg/well): 29 | Revertants per well TA100, well 1 ([14]; +S9, 125 μg/well): 28 | Revertants per well TA100, well 2 ([14]; +S9, 125 μg/well): 30 | Background Lawn TA100 ([14]; +S9, 250 μg/well): 4/4 | Revertants per well TA100, Mean ([14]; +S9, 250 μg/well): 29 | Revertants per well TA100, well 1 ([14]; +S9, 250 μg/well): 30 | Revertants per well TA100, well 2 ([14]; +S9, 250 μg/well): 28 | Background Lawn TA100 ([14]; +S9, 500 μg/well): 3,sp/3,sp | Revertants per well TA100, Mean ([14]; +S9, 500 μg/well): 35 | Revertants per well TA100, well 1 ([14]; +S9, 500 μg/well): 32 | Revertants per well TA100, well 2 ([14]; +S9, 500 μg/well): 37 | Background Lawn TA100 ([14]; +S9, 1000 μg/well): 3,mp/3,mp | Revertants per well TA100, Mean ([14]; +S9, 1000 μg/well): 34 | Revertants per well TA100, well 1 ([14]; +S9, 1000 μg/well): 33 | Revertants per well TA100, well 2 ([14]; +S9, 1000 μg/well): 34 | Mutagenic response TA100 ([14]; presence and absence of S9, up to 1000 μg/well): no evidence of a significant increase in the mean number of revertant colonies; also recorded: did not induce a positive mutagenic response | Background Lawn TA100 ([14]; −S9, 62.5 μg/well): 4/4 | Revertants per well TA100, Mean ([14]; −S9, 62.5 μg/well): 32 | Revertants per well TA100, well 1 ([14]; −S9, 62.5 μg/well): 34 | Revertants per well TA100, well 2 ([14]; −S9, 62.5 μg/well): 30 | Background Lawn TA100 ([14]; −S9, 125 μg/well): 4/4 | Revertants per well TA100, Mean ([14]; −S9, 125 μg/well): 33 | Revertants per well TA100, well 1 ([14]; −S9, 125 μg/well): 32 | Revertants per well TA100, well 2 ([14]; −S9, 125 μg/well): 34 | Background Lawn TA100 ([14]; −S9, 250 μg/well): 4,sp/4,sp | Revertants per well TA100, Mean ([14]; −S9, 250 μg/well): 32 | Revertants per well TA100, well 1 ([14]; −S9, 250 μg/well): 34 | Revertants per well TA100, well 2 ([14]; −S9, 250 μg/well): 29 | Background Lawn TA100 ([14]; −S9, 500 μg/well): 3,sp/3,sp | Revertants per well TA100, Mean ([14]; −S9, 500 μg/well): 32 | Revertants per well TA100, well 1 ([14]; −S9, 500 μg/well): 33 | Revertants per well TA100, well 2 ([14]; −S9, 500 μg/well): 31 | Background Lawn TA100 ([14]; −S9, 1000 μg/well): 3,mp/3,mp | Revertants per well TA100, Mean ([14]; −S9, 1000 μg/well): 27 | Revertants per well TA100, well 1 ([14]; −S9, 1000 μg/well): 28 | Revertants per well TA100, well 2 ([14]; −S9, 1000 μg/well): 26 | p-STAT3 (Y-705) and p-Src [15]: inhibited p-STAT3 (Y-705) and p-Src | Levels of phosphorylated and total EGFR, HER2, HER3, and MET [16]: reduce the levels of phosphorylated and total receptor tyrosine kinases EGFR, HER2, HER3, and MET

CS(=O)(=O)N1CCN(Cc2cc3nc(-c4cccc5[nH]ncc45)nc(N4CCOCC4)c3s2)CC1 [GDC-0941, reference compound]
IC50 [1]: > 10000 nM | IC50 [2]: 1000 to 10000 nM | IC50 [3]: > 10000 nM | IC50 [4]: > 10000 nM | IC50 [5]: > 10000 nM | IC50 [6]: > 10000 nM | IC50 [7]: 1000 to 10000 nM | IC50 [8]: 1000 to 10000 nM | IC50 [9]: 1000 to 10000 nM | IC50 [10]: 100 to 1000 nM | IC50 [11]: > 10000 nM | IC50 [12]: 1000 to 10000 nM
